Converted amounts (≈) assume the structure as drawn.

The target of data set [1] is Adenosine receptor A2a (Homo sapiens) (UniProt P29274). The data set can be described thus: Displacement of [3H]ZM241385 from human recombinant adenosine A2A receptor expressed in human HeLa cell membrane at 10 uM. It is filed as cell membranes. (Displacement assays read how much labelled ligand stays bound in the presence of the test substance.)
Data set [2] deals with T1, Adenosine receptor A2b (Homo sapiens) (UniProt P29275).
T1 sequence (whole entry): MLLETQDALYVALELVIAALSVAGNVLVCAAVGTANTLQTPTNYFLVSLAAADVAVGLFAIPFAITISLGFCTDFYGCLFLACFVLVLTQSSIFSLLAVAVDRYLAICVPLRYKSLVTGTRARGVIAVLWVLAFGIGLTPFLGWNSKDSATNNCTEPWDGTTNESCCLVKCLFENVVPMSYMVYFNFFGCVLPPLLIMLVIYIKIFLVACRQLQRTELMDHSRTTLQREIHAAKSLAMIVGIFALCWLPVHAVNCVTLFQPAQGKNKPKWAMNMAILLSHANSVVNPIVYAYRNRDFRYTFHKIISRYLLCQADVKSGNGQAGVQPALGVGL
Nature of the data set: Displacement of [3H]DPCPX from human recombinant adenosine A2B receptor expressed in HEK293 cell membrane at 10 uM. It counts as cell membranes.

Data set [3] is described as follows: Solubility in glycerin. It is filed as physicochemical.
Data set [4] can be described thus: Solubility in water. It is filed as physicochemical.
The target of data set [5] is T2, Adenosine receptor A1 (Homo sapiens) (UniProt P30542).
T2 sequence (whole entry): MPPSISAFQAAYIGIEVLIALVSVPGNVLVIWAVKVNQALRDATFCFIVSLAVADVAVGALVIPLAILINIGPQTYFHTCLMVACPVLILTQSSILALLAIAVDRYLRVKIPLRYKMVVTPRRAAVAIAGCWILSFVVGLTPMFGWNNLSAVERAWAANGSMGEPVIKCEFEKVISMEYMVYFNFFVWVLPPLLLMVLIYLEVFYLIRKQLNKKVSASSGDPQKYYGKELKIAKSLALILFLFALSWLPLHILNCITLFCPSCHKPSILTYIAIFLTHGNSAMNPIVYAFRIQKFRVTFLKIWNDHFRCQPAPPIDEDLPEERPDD
The data set can be described thus: Displacement of [3H]DPCPX from human recombinant adenosine A1 receptor expressed in CHO-A1 cell membrane at 10 uM. It is filed as cell membranes.

The target of data set [6] is T3, Adenosine receptor A3 (Homo sapiens) (UniProt P0DMS8).
T3 sequence (whole entry): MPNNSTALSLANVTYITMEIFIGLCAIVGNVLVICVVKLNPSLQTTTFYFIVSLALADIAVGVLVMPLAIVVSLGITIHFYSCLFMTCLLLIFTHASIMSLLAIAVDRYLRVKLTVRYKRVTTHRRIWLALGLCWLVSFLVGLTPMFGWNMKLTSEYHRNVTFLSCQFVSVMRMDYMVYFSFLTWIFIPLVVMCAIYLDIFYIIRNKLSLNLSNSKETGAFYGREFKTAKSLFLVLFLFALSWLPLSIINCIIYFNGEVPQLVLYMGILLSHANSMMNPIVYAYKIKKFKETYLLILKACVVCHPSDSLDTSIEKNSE
The data set can be described thus: Displacement of [3H]NECA from human recombinant adenosine A3 receptor expressed in human HeLa cell membrane at 10 uM. It counts as cell membranes.

A short description of data set [7]: Solubility in di(ethylene glycol). It is filed as physicochemical.
For a further data set, the target named is T4, Adenosine receptor A1 (Homo sapiens, UniProt P30542).
T4 sequence (P30542 whole entry): T2 sequence (whole entry)
Nature of the data set: Displacement of [3H]DPCPX from human recombinant adenosine A1 receptor expressed in CHO-A1 cell membrane. It is filed as cell membranes.

Chain of Adenosine receptor A2a (Homo sapiens) (P29274 whole entry): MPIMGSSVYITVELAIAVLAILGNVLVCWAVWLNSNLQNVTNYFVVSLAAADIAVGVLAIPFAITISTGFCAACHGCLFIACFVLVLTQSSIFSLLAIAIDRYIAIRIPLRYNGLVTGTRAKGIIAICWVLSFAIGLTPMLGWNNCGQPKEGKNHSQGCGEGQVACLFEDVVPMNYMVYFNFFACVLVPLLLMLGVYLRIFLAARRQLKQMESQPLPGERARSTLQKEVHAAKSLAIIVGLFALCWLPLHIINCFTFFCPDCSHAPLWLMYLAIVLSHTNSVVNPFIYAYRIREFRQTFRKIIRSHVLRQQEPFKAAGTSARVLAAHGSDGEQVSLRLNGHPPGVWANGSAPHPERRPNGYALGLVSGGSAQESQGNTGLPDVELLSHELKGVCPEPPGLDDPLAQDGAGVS

One may read the inhibition as the drop in the measured response relative to a control, in per cent. By solubility is commonly meant how much of the substance goes into solution per volume. Low readings indicate a poorly soluble substance, high ones a readily soluble substance. Turning to `COCCOCCOCc1nc2c([nH]1)c(=O)n(C)c(=O)n2C`, the inhibition in data set [1] is 20%; in data set [2] it was 10%; in data set [5], 37%; in data set [6], 1%. Moreover, the results for the solubility entry in data set [3], in data set [4] and in data set [7] were “Insoluble”, 14 mM (≈ 4370 µg/mL) and 10 mM (≈ 3120 µg/mL), respectively.

`Cn1c(=O)c2c(ncn2CCOCCOCCOCCN=[N+]=[N-])n(C)c1=O`: the inhibition worked out at 17% in data set [1], 3% in data set [2], 24% in data set [5] and 2% in data set [6].

Usually Ki stands for a measure of affinity in units of concentration, obtained from inhibition or displacement. For the compound `C=CCCCCCCCCCOCCOCCOCCOCCn1cnc2c1c(=O)n(C)c(=O)n2C`, the inhibition in data set [1] was 18%; in data set [2] it was 47%; in data set [5], 53%; in data set [6] it was 19%. Besides, at Adenosine receptor A1, the Ki is 5 µM.

Source of the values: ChEMBL document CHEMBL1157661 (Bioorg Med Chem, 2010).
